Reference: patent publication US12581252B2, “Substituted pyrrolo[3,4-b]pyridines as PI3K-α inhibitors” (Relay Therapeutics, Inc., priority 2020, dated 2026)

Target: H1047R PIK3CA enzyme (Homo sapiens, UniProt P42336, H1047R)
Assay: ADP-Glo Biochemical PIK3CA Kinase Assay

Chain of H1047R PIK3CA enzyme (P42336 whole entry H1047R): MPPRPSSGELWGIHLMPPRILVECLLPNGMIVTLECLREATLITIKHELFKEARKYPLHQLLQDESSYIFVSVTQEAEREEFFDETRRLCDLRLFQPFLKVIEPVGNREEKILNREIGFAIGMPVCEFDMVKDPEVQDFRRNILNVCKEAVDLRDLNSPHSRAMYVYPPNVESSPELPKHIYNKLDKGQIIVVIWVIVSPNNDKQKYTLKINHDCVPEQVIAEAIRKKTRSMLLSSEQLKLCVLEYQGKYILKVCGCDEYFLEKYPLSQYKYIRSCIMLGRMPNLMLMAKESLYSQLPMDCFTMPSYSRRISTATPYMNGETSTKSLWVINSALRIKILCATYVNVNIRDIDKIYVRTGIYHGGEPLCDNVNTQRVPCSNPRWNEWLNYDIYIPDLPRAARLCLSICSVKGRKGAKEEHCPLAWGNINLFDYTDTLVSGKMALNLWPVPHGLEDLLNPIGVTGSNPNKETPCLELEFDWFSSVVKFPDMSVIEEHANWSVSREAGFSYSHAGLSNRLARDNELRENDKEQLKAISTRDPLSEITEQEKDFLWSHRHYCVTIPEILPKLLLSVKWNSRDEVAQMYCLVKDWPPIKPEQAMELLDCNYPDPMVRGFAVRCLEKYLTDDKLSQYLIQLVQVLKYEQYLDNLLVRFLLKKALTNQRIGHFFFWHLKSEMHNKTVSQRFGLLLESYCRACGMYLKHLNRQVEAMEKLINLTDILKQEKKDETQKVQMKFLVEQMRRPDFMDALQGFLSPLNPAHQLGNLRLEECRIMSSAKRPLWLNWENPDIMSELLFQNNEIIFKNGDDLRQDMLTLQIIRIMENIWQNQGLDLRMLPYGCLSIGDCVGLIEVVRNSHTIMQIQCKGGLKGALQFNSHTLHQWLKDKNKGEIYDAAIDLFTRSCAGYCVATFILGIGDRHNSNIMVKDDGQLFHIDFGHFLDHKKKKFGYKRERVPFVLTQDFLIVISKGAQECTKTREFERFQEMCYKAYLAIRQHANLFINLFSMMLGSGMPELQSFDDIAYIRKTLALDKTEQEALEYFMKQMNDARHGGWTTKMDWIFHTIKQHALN
Chain of H1047R PIK3CA enzyme (P27986 whole entry partner): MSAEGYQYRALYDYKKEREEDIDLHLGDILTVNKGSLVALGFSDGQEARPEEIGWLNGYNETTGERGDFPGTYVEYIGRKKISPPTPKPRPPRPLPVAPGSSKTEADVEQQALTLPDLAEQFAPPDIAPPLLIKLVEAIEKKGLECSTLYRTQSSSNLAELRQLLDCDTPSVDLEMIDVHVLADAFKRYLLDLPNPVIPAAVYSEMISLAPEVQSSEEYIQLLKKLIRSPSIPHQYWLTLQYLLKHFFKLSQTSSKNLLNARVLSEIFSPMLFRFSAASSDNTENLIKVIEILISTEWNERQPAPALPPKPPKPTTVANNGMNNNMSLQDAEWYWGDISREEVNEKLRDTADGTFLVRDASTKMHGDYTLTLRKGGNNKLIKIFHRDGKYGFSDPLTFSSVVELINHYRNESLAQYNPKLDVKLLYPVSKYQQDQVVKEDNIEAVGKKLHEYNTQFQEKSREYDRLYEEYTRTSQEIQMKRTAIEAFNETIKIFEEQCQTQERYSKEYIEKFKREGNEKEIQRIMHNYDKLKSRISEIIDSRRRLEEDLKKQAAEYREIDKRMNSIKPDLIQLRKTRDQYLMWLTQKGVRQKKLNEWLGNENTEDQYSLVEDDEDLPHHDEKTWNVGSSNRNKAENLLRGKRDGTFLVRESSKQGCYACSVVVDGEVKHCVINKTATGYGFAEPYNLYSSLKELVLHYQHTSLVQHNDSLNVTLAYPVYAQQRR

| SMILES | IC50 [µM] |
| --- | --- |
| CN(C)S(=O)(=O)c1cc(-c2ccc3ncnn3c2)cc2c1C(c1cc(F)ccc1Cl)NC2=O (stereo not drawn) [Compound I-1968] | 10 to 100 |
| CNC(=O)c1cc(-c2ccc3ncnn3c2)cc2c1C(c1cc(F)ccc1Cl)NC2=O (stereo not drawn) [Compound I-1846] | 10 to 100 |
| CN(C)c1cc(NC(=O)N2C[C@@](O)(C(F)(F)F)c3cc(F)ccc32)c2c(n1)C(=O)N[C@@H]2c1cc(F)ccc1Cl (single isomer, unassigned) [Compound I-2693] | 10 to 100 |
| Cc1ccccc1[C@@H]1NC(=O)c2nccc(NC(=O)N3C[C@@H](C)c4ccccc43)c21 (single isomer, unassigned) [Compound I-303] | 10 to 100 |
| O=C(Nc1cccc2c1[C@H](C1CC1)NC2=O)c1cc(F)cc(C(F)(F)F)c1 (single isomer, unassigned) [Compound I-2221] | 10 to 100 |
| O=C1N[C@H](c2cc(F)ccc2Cl)c2c(NC(=O)N3C[C@H](O)c4cc(F)c(F)cc43)cccc21 (single isomer, unassigned) [Compound I-2292] | 10 to 100 |
| Cc1ccccc1C1NC(=O)c2cccc(NC(=O)c3nc(C)n4ccc(Cl)cc34)c21 (stereo not drawn) [Compound I-277, 7-Chloro-N-(1-oxo-3-(o-tolyl)isoindolin-4-yl)-3-methylimidazo[1,5-a]pyridine-1-carboxamide] | 10 to 100 |
| O=C1NC(c2cc(F)ccc2Cl)c2c(NC(=O)N3CCCC(O)C3)cc(-c3ccc4ncnn4c3)cc21 (stereo not drawn) [Compound I-1721] | 10 to 100 |
| O=C1N[C@@H](c2cc(F)ccc2Cl)c2c(NC(=O)N3C[C@@](O)(C(F)(F)F)c4cc(F)ccc43)ccc(-n3cccn3)c21 (single isomer, unassigned) [Compound I-2495] | 10 to 100 |
| COc1c(F)cc(Cl)cc1C(=O)Nc1cc(Br)cc2c1C(c1cc(F)ccc1Cl)NC2=O (stereo not drawn) [Compound I-858] | 1 to 10 |
| NCCc1cc(NC(=O)N2C[C@@H](O)c3cc(F)ccc32)c2c(c1)C(=O)N[C@H]2c1cc(F)ccc1Cl (single isomer, unassigned) [Compound I-2446] | 1 to 10 |
| O=C(Nc1cc(Br)cc2c1C(c1cc(F)ccc1Cl)NC2=O)c1ccccc1C(F)F (stereo not drawn) [Compound I-518] | 10 to 100 |
| O=C1N[C@@H](c2cc(F)ccc2Cl)c2c(Nc3cn[nH]c3)cc(Br)cc21 [Compound I-2184] | 10 to 100 |
| NS(=O)(=O)c1cc(-c2ccc3ncnn3c2)cc2c1[C@@H](c1cc(F)ccc1Cl)NC2=O [Compound I-2100] | 10 to 100 |
| CCn1cc(-c2cc(NC(=O)c3cc(F)cc(C(F)(F)F)c3)c3c(c2)C(=O)N[C@@H]3c2cc(F)ccc2Cl)ccc1=O [Compound I-703] | 10 to 100 |
| O=C1N[C@H](c2cc(F)ccc2Cl)c2c(NC(=O)N3C[C@H](O)c4ccc(F)cc43)cccc21 (stereo in doubt) [Compound I-2174] | 10 to 100 |
| O=C1NC(c2cc(F)ccc2Cl)c2c(NC(=O)N3CC4CCC4(C(F)(F)F)C3)cc(Br)cc21 (stereo not drawn) [Compound I-1754] | 1 to 10 |
| O=C(Cn1ncc2ccccc21)Nc1cc(Br)cc2c1C(c1cc(F)ccc1Cl)NC2=O (stereo not drawn) [Compound I-633] | 10 to 100 |
| CC(C)(O)Cc1cc(NC(=O)c2cc(F)cc(Cl)c2)c2c(c1)C(=O)N[C@H]2c1cc(F)ccc1Cl [Compound I-963] | 0.5 to 1 |
| O=C1NC(c2cc(F)ccc2Cl)c2c(NC(=O)N3CCCc4ccc(Cl)cc43)cc(Br)cc21 (stereo not drawn) [Compound I-992] | 1 to 10 |
| O=C1NC(c2cc(F)ccc2Cl)c2c(NC(=O)N3CCc4cc(Cl)ccc43)cc(Br)cc21 (stereo not drawn) [Compound I-1269] | 1 to 10 |
| Cc1ccccc1C1NC(=O)c2cccc(NC(=O)c3cc(C(F)(F)F)ccc3F)c21 (stereo not drawn) [Compound I-369] | 1 to 10 |
| CC(C)(O)c1cnc2ccc(-c3cc(NC(=O)c4cc(F)cc(C(F)(F)F)c4)c4c(c3)C(=O)N[C@@H]4c3cc(F)ccc3Cl)cc2c1 [Compound I-1605] | 10 to 100 |

Results, then the molecule that gave them:

| IC50 [µM] | SMILES |
| --- | --- |
| 0.5 to 1 | N#Cc1cnccc1-c1cc(NC(=O)c2cc(F)cc(C(F)(F)F)c2)c2c(c1)C(=O)N[C@@H]2c1cc(F)ccc1Cl (stereo in doubt) [Compound I-1231] |
| ≤ 0.1 | CC(=O)COc1cc(NC(=O)c2cc(F)cc(C(F)(F)F)c2)c2c(c1)C(=O)NC2c1cc(F)ccc1Cl (stereo not drawn) [Compound I-708] |
| 1 to 10 | [2H]C1([2H])N(C(=O)Nc2cccc3c2[C@@H](c2cc(F)ccc2Cl)NC3=O)c2ccc(F)cc2[C@]1(O)C(F)(F)F (single isomer, unassigned) [Compound I-2592] |
| 0.1 to 0.5 | O=C(Nc1cc(-c2ccc3ncnn3c2)cc2c1[C@H](c1cc(F)ccc1Cl)NC2=O)c1cc(F)cc(C(F)F)c1 (stereo in doubt) [Compound I-1171] |
| ≤ 0.1 | O=C(Nc1cc(-c2ccc3ocnc3n2)cc2c1C(c1cc(F)ccc1Cl)NC2=O)c1cc(F)cc(C(F)(F)F)c1 (stereo not drawn) [Compound I-1553] |
| ≤ 0.1 | O=C(Nc1cc(B(O)O)cc2c1C(c1cc(F)ccc1Cl)NC2=O)c1cc(F)cc(Cl)c1 (stereo not drawn) [Compound I-385] |
| 1 to 10 | CC(C)n1cc(-c2cc(NC(=O)c3cc(F)cc(C(F)(F)F)c3)c3c(c2)C(=O)N[C@@H]3c2cc(F)ccc2Cl)ccc1=O [Compound I-742] |
| ≤ 0.1 | O=C(Nc1cc(-c2ccc3ncnn3c2)cc2c1[C@H](c1cc(F)ccc1Cl)NC2=O)c1cc(Cl)cc(Cl)c1 (stereo in doubt) [Compound I-1208] |
| ≤ 0.1 | O=C(Nc1cc(N2CCn3cncc3C2)cc2c1C(c1cc(F)ccc1Cl)NC2=O)c1cc(F)cc(C(F)(F)F)c1 (stereo not drawn) [Compound I-1237] |
| ≤ 0.1 | O=C(Nc1cc(-c2cnn(-c3ccncn3)c2)cc2c1C(c1cc(F)ccc1Cl)NC2=O)c1cc(F)cc(C(F)(F)F)c1 (stereo not drawn) [Compound I-1465] |
| 0.1 to 0.5 | O=C(Nc1cc(Br)cc2c1[C@H](c1ccc(F)cc1Cl)NC2=O)c1cc(F)cc(C(F)(F)F)c1 [Compound I-755] |
| ≤ 0.1 | Cn1cc(-c2cc(NC(=O)c3cc(F)cc(C(F)(F)F)c3)c3c(c2)C(=O)N[C@H]3c2cc(F)ccc2Cl)c(C#N)n1 [Compound I-1738] |
| 0.1 to 0.5 | O=C1N[C@@H](c2cc(F)ccc2Cl)c2c(NC(=O)N3C[C@H](O)c4cc(F)ccc43)cc(-c3cnn(C(F)F)c3)cc21 (single isomer, unassigned) [Compound I-2478] |
| 0.1 to 0.5 | O=C(Nc1cnc(N2CC(F)(F)C2)c2c1C(c1cc(F)ccc1Cl)NC2=O)c1cc(F)cc(C(F)(F)F)c1 (stereo not drawn) [Compound I-320] |
| ≤ 0.1 | O=C(Nc1cc(N2CCn3ccnc3C2)cc2c1C(c1cc(F)ccc1Cl)NC2=O)c1cc(F)cc(C(F)(F)F)c1 (stereo not drawn) [Compound I-1236] |
| 0.1 to 0.5 | O=C(Nc1cc(Br)cc2c1C(c1cc(F)ccc1Cl)NC2=O)c1cc(O)cc(Cl)c1 (stereo not drawn) [Compound I-1282] |
| 0.1 to 0.5 | Cc1ccccc1C1NC(=O)c2c(Br)ccc(NC(=O)c3cc(F)cc(C(F)(F)F)c3)c21 (stereo not drawn) [Compound I-279] |
| ≤ 0.1 | CCC(N)(CC)c1cc(NC(=O)c2cc(F)cc(C(F)(F)F)c2)c2c(c1)C(=O)NC2c1cc(F)ccc1Cl (stereo not drawn) [Compound I-554] |
| 0.5 to 1 | O/N=C(\Nc1cccc2c1C(c1cc(F)ccc1Cl)NC2=S)c1cc(F)cc(C(F)(F)F)c1 (stereo not drawn) [Compound I-846] |
| 0.1 to 0.5 | O=C(Nc1ccnc2c1C(c1cc(F)ccc1Cl)NC2=O)c1cc(F)cc(C(F)(F)F)c1 (stereo not drawn) [Compound I-305] |
| ≤ 0.1 | Cc1ccccc1C1NC(=O)c2cc(C3(O)CCC3)cc(NC(=O)c3nsc4ccccc34)c21 (stereo not drawn) [Compound I-419] |
| 0.1 to 0.5 | O=C(Nc1cc(C2(O)COCC2O)cc2c1C(c1cc(F)ccc1Cl)NC2=O)c1cc(F)cc(C(F)(F)F)c1 (stereo not drawn) [Compound I-1141] |
